Data reported in patent publication US8367838B2, “Amines or amino alcohols as GLYT1 inhibitors” (Hoffmann-La Roche Inc., priority 2009, dated 2013).
Where a name gives a salt, the structure may show the parent alone.

Target: T1, mGlyT-1b (Mus musculus, UniProt P28571)
T1 construct: host or cells: Flp-in-CHO
T1 sequence (P28571 1-651 isoform P28571-2): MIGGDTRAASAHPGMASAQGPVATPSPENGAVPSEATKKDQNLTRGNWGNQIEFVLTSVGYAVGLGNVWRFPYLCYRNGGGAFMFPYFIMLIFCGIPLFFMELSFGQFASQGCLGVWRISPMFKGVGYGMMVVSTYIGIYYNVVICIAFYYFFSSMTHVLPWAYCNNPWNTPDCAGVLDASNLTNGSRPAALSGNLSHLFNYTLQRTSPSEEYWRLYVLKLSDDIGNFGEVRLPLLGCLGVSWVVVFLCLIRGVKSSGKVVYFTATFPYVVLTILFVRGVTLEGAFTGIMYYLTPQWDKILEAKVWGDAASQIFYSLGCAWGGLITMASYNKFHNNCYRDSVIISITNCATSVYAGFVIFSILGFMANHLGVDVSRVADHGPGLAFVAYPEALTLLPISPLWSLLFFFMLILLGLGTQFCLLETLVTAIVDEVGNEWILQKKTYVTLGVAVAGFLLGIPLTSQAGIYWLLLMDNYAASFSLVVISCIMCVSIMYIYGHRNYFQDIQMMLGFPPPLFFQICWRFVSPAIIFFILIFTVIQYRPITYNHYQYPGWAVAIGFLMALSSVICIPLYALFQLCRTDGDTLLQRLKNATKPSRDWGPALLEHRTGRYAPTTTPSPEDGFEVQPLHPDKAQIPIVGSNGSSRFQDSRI
Experiment: Glycine uptake inhibition assay (mGlyT-1b), [3H]-glycine uptake in transfected Flp-in-CHO cells
Format: cell-based
Conditions: Flp-in-CHO cells transfected with mGlyT-1b cDNA; [3H]-glycine 60 nM and 25 μM non-radioactive glycine; 20 min preincubation at 22° C.; read-out: IC50 (μM) at GlyT-1; Ic50 (hglyt1b)
Protocol: Nutrient mixture F-12 (Gibco Life-technologies), fetal bovine serum (FBS) 5%, (Gibco life technologies), Penicillin/Streptomycin 1% (Gibco life technologies), Hygromycin 0.6 mg/ml (Gibco life technologies), Glutamine 1 mM Gibco life technologies).
150 mM NaCl, 10 mM Hepes-Tris, pH 7.4, 1 mM CaCl2, 2.5 mM KCl, 2.5 mM MgSO4, 10 mM (+) D-glucose. Flp-in™-CHO (Invitrogen Cat n° R758-07) cells stably transfected with mGlyT1b cDNA.
Glycine Uptake Inhibition Assay (mGlyT-1b)
On day 1 mammalian cells, (Flp-in™-CHO), transfected with mGlyT-1b cDNA, were plated at the density of 40,000 cells/well in complete F-12 medium, without hygromycin in 96-well culture plates. On day 2, the medium was aspirated and the cells were washed twice with uptake buffer (UB). The cells were then incubated for 20 min at 22° C. with either (i) no potential competitor, (ii) 10 mM non-radioactive glycine, (iii) a concentration of a potential inhibitor. A range of concentrations of the potential inhibitor was used to generate data for calculating the concentration of inhibitor resulting in 50% of the effect (e.g. IC50, the concentration of the competitor inhibiting glycine uptake of 50%). A solution was then immediately added containing [^3H]-glycine 60 nM (11-16 Ci/mmol) and 25 μM non-radioactive glycine. The plates were incubated with gentle shaking and the reaction was stopped by aspiration of the mixture and washing (three times) with ice-cold UB. The cells were lysed with scintillation liquid, shaken 3 hours and the radioactivity in the cells was counted using a scintillation counter.

| Compound | IC50 [µM] |
| --- | --- |
| Cc1cc([C@@H](O)[C@@H](N)c2ccc(Cl)c(Cl)c2)cnc1OC1CCOCC1 (racemic) [Example 26, rac-erythro-[2-Amino-2-(3,4-dichloro-phenyl)-1-[5-methyl-6-(tetrahydro-pyran-4-yloxy)-pyridin-3-yl]-ethanoldihydrochloride] | 0.239 |
| Cc1nc(OC(C)C)ccc1[C@@H](O)[C@@H](N)c1ccc(Cl)c(Cl)c1 (racemic) [Example 27, rac-erythro-[2-Amino-2-(3,4-dichloro-phenyl)-1-(6-isopropoxy-2-methyl-pyridin-3-yl)-ethanoldihydrochloride] | 0.259 |
| N[C@@H](c1ccc(Cl)c(Cl)c1)[C@H](O)c1ccc(OCC2CCCO2)cc1F (mixture of isomers) [Example 28, rac-erythro-[2-Amino-2-(3,4-dichloro-phenyl)-1-[2-fluoro-4-(tetrahydro-furan-2-ylmethoxy)-phenyl]-ethanol, hydrochloride salt] | 0.33 |
| N[C@@H](c1ccc(Cl)c(Cl)c1)[C@H](O)c1ccc(OCC(O)CCCl)cc1F (mixture of isomers) [Example 29, rac-erythro-[1-[4-[(rac)-2-Amino-2-(3,4-dichloro-phenyl)-1-hydroxy-ethyl]-3-fluoro-phenoxy]-4-chloro-butan-2-ol hydrochloride] | 0.462 |
| N[C@@H](c1ccc(Cl)c(Cl)c1)[C@H](O)c1ccc(OC2CCOCC2)cc1F (racemic) [Example 33, rac-erythro-[2-Amino-2-(3,4-dichloro-phenyl)-1-[2-fluoro-4-(tetrahydro-pyran-4-yloxy)-phenyl]-ethanol hydrochloride] | 0.036 |
| CC1(COc2ccc([C@@H](O)[C@@H](N)c3ccc(Cl)c(Cl)c3)c(F)c2)COC1 (racemic) [Example 34, rac-erythro-[2-Amino-2-(3,4-dichloro-phenyl)-1-[2-fluoro-4-(3-methyl-oxetan-3-ylmethoxy)-phenyl]-ethanol] | 0.023 |
| N[C@@H](c1ccc(Cl)c(Cl)c1)[C@H](O)c1ccc(OC(F)(F)C(F)F)cc1 (racemic) [Example 38, rac-erythro-[2-Amino-2-(3,4-dichlorophenyl)-1-[4-(1,1,2,2-tetrafluoro-ethoxy)-phenyl]-ethanol] | 0.176 |
| CN[C@@H](c1ccc(Cl)c(Cl)c1)[C@H](O)c1ccc(-c2cncc(F)c2)cc1 (racemic) [Example 39, rac-erythro-[2-(3,4-Dichloro-phenyl)-1-[4-(5-fluoro-pyridin-3-yl)-phenyl]-2-methylamino-ethanol hydrochloride] | 0.208 |
| N[C@@H](c1ccc(Cl)c(Cl)c1)[C@H](O)c1ccc(OC2CCOCC2)cc1 (racemic) [Example 40, rac-erythro-[2-Amino-2-(3,4-dichloro-phenyl)-1-[4-(tetrahydro-pyran-4-yloxy)-phenyl]-ethanol] | 0.052 |
| N[C@@H](c1ccc(Cl)c(Cl)c1)[C@H](O)c1ccc(OC2CCOC2)cc1 (mixture of isomers) [Example 42, rac-erythro-[rac-2-Amino-2-(3,4-dichloro-phenyl)-1-[4-(tetrahydro-furan-3-yloxy)-phenyl]-ethanol] | 0.052 |
| N[C@@H](c1ccc(Cl)c(Cl)c1)[C@H](O)c1ccc(OCC2CCOCC2)cc1 (racemic) [Example 45, rac-erythro-[2-Amino-2-(3,4-dichloro-phenyl)-1-[4-(tetrahydro-pyran-4-ylmethoxy)-phenyl]-ethanol] | 0.147 |
| N[C@@H](c1ccc(Cl)c(Cl)c1)[C@H](O)c1ccc(OCC(F)(F)F)cc1 (racemic) [Example 47, rac-erythro-[2-Amino-2-(3,4-dichloro-phenyl)-1-[4-(2,2,2-trifluoro-ethoxy)-phenyl]-ethanol] | 0.266 |
| N[C@@H](c1ccc(Cl)c(Cl)c1)[C@H](O)c1ccc(OCC2CC2)cc1 (racemic) [Example 49, rac-erythro-[2-Amino-1-(4-cyclopropylmethoxy-phenyl)-2-(3,4-dichloro-phenyl)-ethanol] | 0.533 |
| CC(C)COc1ccc([C@@H](O)[C@@H](N)c2ccc(Cl)c(Cl)c2)cc1 (racemic) [Example 50, rac-erythro-2-Amino-2-(3,4-dichloro-phenyl)-1-(4-isobutoxy-phenyl)-ethanol] | 0.549 |
| CCC(C)Oc1ccc([C@@H](O)[C@@H](N)c2ccc(Cl)c(Cl)c2)cc1 (mixture of isomers) [Example 51, rac-erythro-2-Amino-1-(4-sec-butoxy-phenyl)-2-(3,4-dichloro-phenyl)-ethanol] | 0.72 |
| N[C@@H](c1ccc(Cl)c(Cl)c1)[C@H](O)c1ccc(OCCC(F)(F)F)cc1 (racemic) [Example 52, rac-erythro-2-Amino-2-(3,4-dichloro-phenyl)-1-[4-(3,3,3-trifluoro-propoxy)-phenyl]-ethanol] | 0.772 |
| N[C@@H](c1ccc(Cl)cc1)[C@H](O)c1ccc(OC2CCCCC2)cc1 (racemic) [Example 53, rac-erythro-2-Amino-2-(4-chloro-phenyl)-1-(4-cyclohexyloxy-phenyl)-ethanol] | 1.03 |

Continued, values first:

| IC50 [µM] | Compound |
| --- | --- |
| 0.577 | Cc1cc(OC(C)C)ncc1[C@@H](O)[C@@H](N)c1ccc(Cl)c(Cl)c1 (racemic) [Example 30, rac-erythro-[2-Amino-2-(3,4-dichloro-phenyl)-1-(6-isopropoxy-4-methyl-pyridin-3-yl)-ethanoldihydrochloride] |
| 0.646 | Cc1cc([C@@H](O)[C@@H](N)c2ccc(Cl)c(Cl)c2)cnc1OC1CCOC1 (mixture of isomers) [Example 31, rac-erythro-[(rac)-2-Amino-2-(3,4-dichloro-phenyl)-1-[5-methyl-6-(tetrahydro-furan-3-yloxy)-pyridin-3-yl]-ethanoldihydrochloride] |
| 0.842 | CC(C)Oc1ccc([C@@H](O)[C@@H](N)c2ccc(Cl)c(Cl)c2)nc1 (racemic) [Example 32, rac-erythro-[2-Amino-2-(3,4-dichloro-phenyl)-1-(5-isopropoxy-pyridin-2-yl)-ethanoldihydrochloride] |
| 0.298 | C[Si](C)(C)c1ccc([C@@H](O)[C@@H](N)c2ccc(Cl)c(Cl)c2)cc1 (racemic) [Example 35, rac-erythro-[2-Amino-2-(3,4-dichloro-phenyl)-1-(4-trimethylsilanyl-phenyl)-ethanol trifluoroacetate] |
| 0.3 | C[C@@](O)(c1ccc(-c2ccccc2)cc1)[C@@H](N)c1ccc(Cl)cc1 (racemic) [Example 36, rac-erythro-[1-Amino-2-biphenyl-4-yl-1-(4-chloro-phenyl)-propan-2-ol trifluoroacetate] |
| 0.876 | CC(C)(C)c1ccc([C@@H](O)[C@@H](N)c2ccc(Cl)c(Cl)c2)cc1 (racemic) [Example 37, rac-erythro-[2-Amino-1-(4-tert-butyl-phenyl)-2-(3,4-dichloro-phenyl)-ethanol trifluoroacetate] |
| 0.053 | CC(CO)(CCl)COc1ccc([C@@H](O)[C@@H](N)c2ccc(Cl)c(Cl)c2)cc1 (mixture of isomers) [Example 43, rac-erythro-[2-Amino-2-(3,4-dichloro-phenyl)-1-hydroxy-ethyl]-phenoxy]-2-chloromethyl-2-methyl-propan-1-ol hydrochloride] |
| 0.088 | N[C@@H](c1ccc(Cl)c(Cl)c1)[C@H](O)c1ccc(OC2CCS(=O)(=O)CC2)cc1 (racemic) [Example 44, rac-erythro-[2-Amino-2-(3,4-dichloro-phenyl)-1-[4-(1,1-dioxo-hexahydro-1λ^6-thio-pyran-4-yloxy)-phenyl]-ethanol] |
| 0.262 | CC(=O)N1CCC(Oc2ccc([C@@H](O)[C@@H](N)c3ccc(Cl)c(Cl)c3)cc2)CC1 (racemic) [Example 46, rac-erythro-[1-(4-[4-[2-Amino-2-(3,4-dichloro-phenyl)-1-hydroxy-ethyl]-phenoxy]-piperidin-1-yl)-ethanone] |
| 0.433 | N[C@@H](c1ccc(Cl)cc1)[C@H](O)c1ccc(OC2CCCC2)cc1 (racemic) [Example 48, rac-erythro-[2-Amino-2-(4-chloro-phenyl)-1-(4-cyclopentyloxy-phenyl)-ethanol hydrochloride] |
